Data published in patent US20020183384A1, “Methods of treating nuclear factor-kappa B mediated diseases and disorders” (priority 2001, published 2002).

test system: NF-κB mediated transcription; test: NF-κB driven β-lactamase reporter assay in ECV-304 NF-κB.βlaZ cells (AURORA CCF2 fluorescence); format: cell-based, human; settings: 10 μM compound; ECV-304 NF-κB.βlaZ cells stimulated with 10 ng/mL TNF-α or 100 pg/mL IL-1β, 6 hours at 37° C.; inhibition of maximum blue/green ratio
Method in brief: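 Blue/green (460/530 nm, excitation 395 nm) CCF2 emission ratio quantified NF-κB-driven β-lactamase expression in the stably transfected endothelial-like ECV-304 clone 1E8.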

Compound | Percent Inhibition at 10 μM
CC(C)c1cc(C(C)C)c(CC(=O)NS(=O)(=O)Oc2c(C(C)C)cc(NC(=O)[C@@H](N)CCCCN)cc2C(C)C)c(C(C)C)c1 [Example 197, [2-(2,4,6-Triisopropyl-phenyl)-acetyl]-sulfamic acid 4-((S)-2,6-diamino-hexanoylamino)-2,6-diisopropyl-phenyl ester; compound with generic inorganic neutral component] | <10%
CCCCCCC(C)OS(=O)(=O)NC(=O)Nc1c(C(C)C)cccc1C(C)C (centres unmarked) [Example 94, Sulfamic acid, [[[2,6-bis(1-methylethyl)phenyl]amino]carbonyl]-, 1-methylheptyl ester,] | <10%
CC(C)c1cc(C(C)C)c(OS(=O)(=O)NC(=O)Oc2c(C(C)(C)C)cc(C(C)(C)C)cc2C(C)(C)C)c(C(C)C)c1 [Example 127, Carbamic acid, [[2,4,6-bis(1-methylethyl)phenoxy]sulfonyl]-, 2,4,6-tris(1,1-dimethylethyl)phenyl ester] | 74.01%
CC(C)c1cc(C(C)C)c(OC(=O)NS(=O)(=O)Oc2c(C(C)C)cc(C(C)C)cc2C(C)C)c(C(C)C)c1 [Example 126, Carbamic acid, [[2,4,6-tris(1-methylethyl)phenoxy]sulfonyl]-,2,4,6-tris(1-methylethyl)phenyl ester] | 10.02%
CC(C)c1cccc(C(C)C)c1OS(=O)(=O)NC(=O)OCCOC(=O)NS(=O)(=O)Oc1c(C(C)C)cccc1C(C)C [Example 111, Carbamic acid, [[2,6-bis(1-methylethyl)phenoxy]sulfonyl]-, 1,2-ethanediyl ester] | <10%

same assay, conditions: Homo sapiens, ECV-304, 6 h, 10 μM compound; ECV-304 NF-κB.βlaZ cells stimulated with 10 ng/mL TNF-α or 100 pg/mL IL-1β, 6 hours at 37° C.; inhibition of maximum blue/green ratio; read-out: Percent Inhibition at 10 μM

Compound | inhibition at 10 µM
CCCCCCCCCCCCCC(c1ccccc1)S(=O)(=O)NC(=O)Nc1c(C(C)C)cccc1C(C)C (centres unmarked) [Example 245, N-[2,6-bis(1-methylethyl)phenyl]-N′-(1-phenyl-1-tetradecylsulfonyl)urea] | 16.1%
CC(C)c1cc(C(C)C)c(CC(=O)NS(=O)(=O)Oc2c(C(C)C)cc(NC(=O)NC(C)(C)C)cc2C(C)C)c(C(C)C)c1 [Example 219, [(2,4,6-Triisopropyl-phenyl)-acetyl]-sulfamic acid 4-(3-tert-butyl-ureido)-2,6-diisopropyl-phenyl ester] | 15.2%
CC(C)c1cc(C(C)C)c(C(O)C(=O)NS(=O)(=O)Oc2c(C(C)C)cccc2C(C)C)c(C(C)C)c1 (centres unmarked) [Example 162, [Hydroxy-(2,4,6-triisopropyl-phenyl)-acetyl]-sulfamic acid 2,6-diisopropyl-phenyl ester] | 75.3%
CCCCCCCCCCCCCC(C)(C)S(=O)(=O)NC(=O)Nc1c(OC)cc(OC)cc1OC [Example 249, N-[2,4,6-trimethoxyphenyl]-N′-(2-methyl-2-pentadecylsulfonyl)urea] | < 10%
CCOC(=O)CCCCCc1cc(C(C)C)c(OS(=O)(=O)NC(=O)Cc2c(C(C)C)cc(C(C)C)cc2C(C)C)c(C(C)C)c1 [Example 188, 6-(3,5-Diisopropyl-4-{[(2,4,6-triisopropyl-phenyl)-acetyl]sulfamoyloxy}-phenyl)-hexanoic acid ethyl ester] | 50.8%
CCc1cccc(CC)c1COC(=O)NS(=O)(=O)Oc1c(C(C)C)cccc1C(C)C [Example 140, Carbamic acid, [[2,6-bis(1-methylethyl)phenoxy]sulfonyl]-, (2,6-diethylphenyl)methyl ester] | 38.7%
CC[C@H](CC[C@@H](C)[C@H]1CC[C@H]2[C@@H]3CCC4C[C@H](OC(=O)NS(=O)(=O)Oc5c(C(C)C)cccc5C(C)C)CC[C@]4(C)[C@H]3CC[C@]12C)C(C)C (stereo partly drawn) [Example 121, Stigmastan-3-ol, [[2,6-bis(1-methylethyl)phenoxy]sulfonyl]-carbamate, (3α)-] | < 10%
CCCCN(CCCC)S(=O)(=O)N(C)C(=O)Nc1c(C(C)C)cccc1C(C)C [Example 99, Urea, N′-[2,6-bis(1-methylethyl)phenyl]-N-[(dibutylamino)sulfonyl]-N-methyl-] | < 10%
CC(C)c1cccc(C(C)C)c1OS(=O)(=O)NC(=O)C(c1ccccc1)c1ccccc1 [Example 160, Diphenylacetyl-sulfamic acid 2,6-diisopropyl-phenyl ester] | 34.2%
CC(C)c1cc(C(C)C)c(CC(=O)NS(=O)(=O)Oc2c(C(C)C)cc(OCCCN)cc2C(C)C)c(C(C)C)c1 [Example 208, [2-(2,4,6-Triisopropyl-phenyl)-acetyl]-sulfamic acid 4-(3-amino-propoxy)-2,6-diisopropyl-phenyl ester] | 22.4%
COc1cc(C(C)C)c(OS(=O)(=O)NC(=O)Cc2c(C(C)C)cc(C(C)C)cc2C(C)C)c(C(C)C)c1 [Example 192, [(2,4,6-Triisopropyl-phenyl)-acetyl]-sulfamic acid 2,6-diisopropyl-4-methoxy-phenyl ester] | 63.9%
CC(C)c1cc(C(C)(C)O)cc(C(C)C)c1CC(=O)NS(=O)(=O)Oc1c(C(C)C)cccc1C(C)C [Example 202, {[4-(1-Hydroxy-1-methyl-ethyl)-2,6-diisopropyl-phenyl]-acetyl}-sulfamic acid 2,6-diisopropyl-phenyl ester] | 25.4%
CC(C)c1cc(C(C)C)c(NC(=O)NS(=O)(=O)Oc2c(C(C)C)cccc2C(C)C)c(C(C)C)c1 [Example 177, Sulfamic acid, [[[2,4,6-tris(1-methylethyl)phenyl]amino]carbonyl]-, 2,6-bis(1-methylethyl)phenyl ester] | 63.6%
CCC(C)C(C(=O)NS(=O)(=O)Oc1c(C(C)C)cccc1C(C)C)c1ccccc1 (centres unmarked) [Example 167, (3-Methyl-2-phenyl-pentanoyl)-sulfamic acid 2,6-diisopropyl-phenyl ester] | 40%
CCC(C)N(C(C)CC)S(=O)(=O)NC(=O)Nc1c(C(C)C)cccc1C(C)C (centres unmarked) [Example 83, Urea, N-[2,6-bis(1-methylethyl)phenyl]-N′-[[bis(1-methylpropyl)-amino]-sulfonyl]-] | 10.6%
CSCC[C@H](N)C(=O)Nc1cc(C(C)C)c(OS(=O)(=O)NC(=O)Cc2c(C(C)C)cc(C(C)C)cc2C(C)C)c(C(C)C)c1 [Example 201, [2-(2,4,6-Triisopropyl-phenyl)-acetyl]-sulfamic acid 4-((S)-2-amino-4-methylsulfanyl-butyrylamino)-2,6-diisopropyl-phenyl ester] | 87.1%
CC(C)c1cccc(C(C)C)c1OS(=O)(=O)NC(=O)c1cc2ccccc2oc1=O [Example 237, (2-Oxo-2H-chromene-3-carbonyl)-sulfamic acid 2,6-diisopropyl-phenyl ester] | 57.1%
CC(C)c1cccc(C(C)C)c1OS(=O)(=O)NC(=O)C1(c2ccccc2)CCCC1 [Example 168, (1-Phenyl-cyclopentanecarbonyl)-sulfamic acid 2,6-diisopropyl-phenyl ester] | 39.1%
CCCCCCCCCCCCCCS(=O)(=O)N(C)C(=O)Nc1c(C(C)C)cccc1C(C)C [Example 241, N′-[2,6-bis(1-methylethyl)phenyl]-N-methyl-N-(tetradecylsulfonyl)-urea] | < 10%

same assay, conditions: Homo sapiens; 10 μM compound; ECV-304 NF-κB.βlaZ cells stimulated with 10 ng/mL TNF-α or 100 pg/mL IL-1β, 6 hours at 37° C.; inhibition of maximum blue/green ratio; read-out: Percent Inhibition at 10 μM

Compound | inhibition at 10 µM
CC(C)c1cc(CN(C)C)cc(C(C)C)c1OC(=O)NS(=O)(=O)Oc1c(C(C)C)cccc1C(C)C [Example 130, Carbamic acid, [[2,6-bis(1-methylethyl)phenoxy]sulfonyl]-, 4-[(dimethylamino)-methyl]-2,6-bis(1-methylethyl)phenyl ester] | < 10%
CC(C)c1cccc(C(C)C)c1OC(=O)NS(=O)(=O)N1CCCCC1 [Example 59, Carbamic acid, (1-piperidinylsulfonyl)-, 2,6-bis(1-methylethyl)phenyl ester] | < 10%
Cc1cc(C(C)(C)C)c(OC(=O)NS(=O)(=O)Oc2c(C(C)C)cccc2C(C)C)c(C(C)(C)C)c1 [Example 119, Carbamic acid, [[2,6-bis(1-methylethyl)phenoxy]sulfonyl]-, 2,6-bis(1,1-dimethylethyl)-4-methylphenyl ester] | 56.6%
CC(C)c1ccc(OC(=O)NS(=O)(=O)Oc2c(C(C)C)cccc2C(C)C)c(C(C)C)c1 [Example 129, Carbamic acid, [[2,6-bis(1-methylethyl)phenoxy]sulfonyl]-, 2,4-bis(1-methylethyl)phenyl ester] | < 10%
CC(C)(C)c1cccc(C(C)(C)C)c1OC(=O)NS(=O)(=O)Nc1ccccc1Cc1ccccc1 [Example 221, Carbamic acid, [[[2-(phenylmethyl)phenyl]amino]sulfonyl]-, 2,6-bis(1,1-dimethylethyl)phenyl ester] | 44.7%
COc1cc(C(C)(C)C)c(OC(=O)NS(=O)(=O)NCC(c2ccccc2)c2ccccc2)c(C(C)(C)C)c1 [Example 47, Carbamic acid, [[(2,2-diphenylethyl)amino]sulfonyl]-, 2,6-bis(1,1-dimethylethyl)-4-methoxyphenyl ester] | 41.9%
CC(C)c1cc(Cl)cc(C(C)C)c1OC(=O)NS(=O)(=O)Oc1c(C(C)C)cccc1C(C)C [Example 117, Carbamic acid, [[2,6-bis(1-methylethyl)phenoxy]sulfonyl]-, 4-chloro-2,6-bis(1-methylethyl)phenyl ester] | < 10%
CC(C)c1cccc(C(C)C)c1NS(=O)(=O)NC(=O)Oc1c(C(C)C)cccc1C(C)C [Example 4, Carbamic acid, [[[2,6-bis(1-methylethyl)phenyl]amino]sulfonyl]-, 2,6-bis(1-methylethyl)phenyl ester] | 35.3%
